These results are taken from ChEMBL document CHEMBL5058564, “EUbOPEN Chemogenomics Library 2 (Incucyte)” (2022).

Holding throughout (type): toxicity, cell-based
In one data set the test system is HEK-293T. Kind of data set: Incucyte cell viability with HEK293T. The conditions noted are these: human, 10 µM, compound concentration 10 uM.
Another data set concerns Fibroblast. Kind of data set: Incucyte cell viability with human fibroblast. The conditions noted are these: 10 µM, compound concentration 10 uM.
In a further data set the test system is U2OS. Kind of data set: Incucyte cell viability with U2OS. Conditions: human, 10 µM, compound concentration 10 uM.
Where [1] appears, read: 0 h, replicate number 1, timepoint 0 hours.
Setting [2] is: 0 h, replicate number 2, timepoint 0 hours.
Where [3] appears, read: 18 h, replicate number 1, timepoint 18 hours.
The mark [4] stands for this setting: 24 h, replicate number 1, timepoint 24 hours.
Setting [5] is: 6 h, replicate number 1, timepoint 6 hours.
Setting [6] is: 6 h, replicate number 2, timepoint 6 hours.
[7] abbreviates: 12 h, replicate number 1, timepoint 12 hours.
The mark [8] stands for this setting: 12 h, replicate number 2, timepoint 12 hours.
Setting [9] is: 18 h, replicate number 2, timepoint 18 hours.
Where [10] appears, read: 24 h, replicate number 2, timepoint 24 hours.

Where a SMILES comes first, the peptide text is derived from it. [ ]: non-standard residue; d: D form. The star is where a group is joined. dPhe(4-NHCONH2) = NC(=O)Nc1ccc(C[C@@H](N)C(=O)O)cc1; Dihydroorotyl(S) = O=C1C[C@@H](C(=O)*)NC(=O)N1; dPhe(4-Cl) = N[C@H](Cc1ccc(Cl)cc1)C(=O)O; Phe(4-NH2) = Nc1ccc(C[C@H](N)C(=O)O)cc1; d2Nal = N[C@H](Cc1ccc2ccccc2c1)C(=O)O; Lys(iPr) = CC(C)NCCCC[C@H](N)C(=O)O; d3Pal = N[C@H](Cc1cccnc1)C(=O)O
Further: unitless GR value; below 1 slowed growth and below 0 cell loss.

With `C[C@]1(O)CC[C@H]2[C@@H]3CCC4=CC(=O)CCC4=C3C=C[C@@]21C` [METRIBOLONE], the “Growth Rate” value is given as 0.16 with HEK-293T (setting [1]); 0.59 with HEK-293T (setting [2]); 1 in the data set on HEK-293T (setting [3]); 0.98 with HEK-293T (setting [4]); 0.89 in the data set with Fibroblast (setting [1]); 0.22 in the data set on Fibroblast (setting [2]). Moreover, the “Growth Rate” value in the data set on Fibroblast (setting [5]) turned out to be 0.66; with Fibroblast (setting [6]), 0.85; in the data set on Fibroblast (setting [7]), 0.98; in the data set on Fibroblast (setting [4]) it was 0.98; in the data set with U2OS (setting [2]), 0.07; with U2OS (setting [5]), 0.83. In addition, the “Growth Rate” value stood at 0.56 with U2OS (setting [7]); 0.92 in the data set on U2OS (setting [8]); 0.54 in the data set on U2OS (setting [3]); 0.92 in the data set with U2OS (setting [9]); 0.76 in the data set with U2OS (setting [4]); 0.86 with U2OS (setting [10]).

Consider `CC(=O)N[C@H](Cc1ccc2ccccc2c1)C(=O)N[C@H](Cc1ccc(Cl)cc1)C(=O)N[C@H](Cc1cccnc1)C(=O)N[C@@H](CO)C(=O)N[C@@H](Cc1ccc(NC(=O)[C@@H]2CC(=O)NC(=O)N2)cc1)C(=O)N[C@H](Cc1ccc(NC(N)=O)cc1)C(=O)N[C@@H](CC(C)C)C(=O)N[C@@H](CCCCNC(C)C)C(=O)N1CCC[C@H]1C(=O)N[C@H](C)C(N)=O` [DEGARELIX] (Ac-[d2Nal][dPhe(4-Cl)][d3Pal]S[Phe(4-NH2)](Dihydroorotyl(S))[dPhe(4-NHCONH2)]L[Lys(iPr)]P[dA]-NH2), for which the “Growth Rate” value is recorded as -0.99 in the data set with HEK-293T (setting [1]), -1 in the data set with Fibroblast (setting [1]), -0.9 in the data set on Fibroblast (setting [2]) and -1 with U2OS (setting [1]).

With `COc1cc(Br)c(S(=O)(=O)Nc2ccc(C(F)(F)F)c(O[C@@H]3CCN(C)C3)c2)cc1OC`, the “Growth Rate” value with HEK-293T (setting [1]) was 0.96; in the data set on HEK-293T (setting [6]), 0.09; in the data set on HEK-293T (setting [8]), 0.38; in the data set with HEK-293T (setting [9]), 0.94; with Fibroblast (setting [5]), -0.5; with Fibroblast (setting [6]) it was -0.63. The “Growth Rate” value with Fibroblast (setting [7]) is listed as -0.19; in the data set with Fibroblast (setting [8]), -0.22; with Fibroblast (setting [3]) it was -0.12; in the data set with Fibroblast (setting [9]), 0.19; in the data set on Fibroblast (setting [4]) it was -0.01; in the data set on Fibroblast (setting [10]), 0.1. The “Growth Rate” value in the data set on U2OS (setting [2]) is -1; in the data set with U2OS (setting [5]), 0.02; in the data set with U2OS (setting [3]), 0.61; in the data set with U2OS (setting [9]) it was 1; in the data set with U2OS (setting [4]), 0.77.

As to `Cl.FC(F)(F)c1ccc(N2CCNCC2)nc1Cl`, the “Growth Rate” value with HEK-293T (setting [2]) turned out to be 0.55; in the data set on HEK-293T (setting [5]), 0.75; with HEK-293T (setting [6]), 0.92; in the data set with HEK-293T (setting [7]), 0.89; in the data set on HEK-293T (setting [8]), 0.95; with HEK-293T (setting [3]) it was 0.79. In addition, the “Growth Rate” value in the data set with HEK-293T (setting [9]) turned out to be 0.89; in the data set with HEK-293T (setting [4]) it was 0.75; in the data set on HEK-293T (setting [10]), 0.82; with Fibroblast (setting [1]), 0.87; in the data set on Fibroblast (setting [2]) it was 0.43; with Fibroblast (setting [5]), 0.27. Also, the “Growth Rate” value in the data set on Fibroblast (setting [7]) came to 0.59; in the data set with Fibroblast (setting [3]), 0.46; in the data set with Fibroblast (setting [4]), 0.59; in the data set with U2OS (setting [2]), 0.39; in the data set on U2OS (setting [5]), 0.77; in the data set with U2OS (setting [6]) it was 0.86. In addition, the “Growth Rate” value in the data set on U2OS (setting [7]) is 0.84; with U2OS (setting [8]) it was 0.78; in the data set on U2OS (setting [3]), 0.93; in the data set with U2OS (setting [9]), 0.87; in the data set on U2OS (setting [10]), 0.96.

With `CCCCC1=NC2(CCCC2)C(=O)N1Cc1ccc(-c2ccccc2-c2nnn[nH]2)cc1` [IRBESARTAN], the “Growth Rate” value in the data set with HEK-293T (setting [1]) amounted to 0.8; in the data set on HEK-293T (setting [2]), 0.31; with HEK-293T (setting [3]), 0.86; in the data set with HEK-293T (setting [4]) it was 0.68; in the data set on Fibroblast (setting [1]), 0.38; in the data set with Fibroblast (setting [2]), 0.58. The “Growth Rate” value with Fibroblast (setting [5]) is given as -0.26; in the data set on Fibroblast (setting [6]), 0.66; with Fibroblast (setting [7]), -0.32; in the data set on Fibroblast (setting [8]), 0.98; in the data set on Fibroblast (setting [3]) it was 0.01; with Fibroblast (setting [4]), 0.09. For the same compound, the “Growth Rate” value in the data set on U2OS (setting [2]) is -1; in the data set on U2OS (setting [5]), 0.3; in the data set on U2OS (setting [6]) it was 0.94; in the data set with U2OS (setting [7]), 0.97; in the data set with U2OS (setting [3]) it was 0.72; in the data set on U2OS (setting [9]) it was 0.95. Moreover, the entries for the “Growth Rate” value in the data set with U2OS (setting [4]) and in the data set with U2OS (setting [10]) were 0.87 and 0.92, respectively.

As for `C[C@]12N[C@H](Cc3ccccc31)c1ccccc12` [DIZOCILPINE], the “Growth Rate” value in the data set with HEK-293T (setting [8]) is on record as 0.84; with HEK-293T (setting [9]), 0.88; with HEK-293T (setting [10]) it was 1; with Fibroblast (setting [2]) it was 0.6; with Fibroblast (setting [5]), 0.45; in the data set on Fibroblast (setting [7]), 0.08. Further, the “Growth Rate” value in the data set with Fibroblast (setting [3]) stood at 0.43; with Fibroblast (setting [4]), 0.25; with U2OS (setting [5]), 0.6; with U2OS (setting [6]), 0.81; in the data set with U2OS (setting [8]) it was 0.75; with U2OS (setting [3]), 0.97. Moreover, the “Growth Rate” value with U2OS (setting [9]) was 0.93; in the data set with U2OS (setting [10]), 0.98.

Consider `COc1cc(N2CCN(C)CC2)ccc1Nc1nccc(-c2cn(C)c3cnccc23)n1`, for which the “Growth Rate” value is listed as -0.61 in the data set with HEK-293T (setting [1]); -0.28 with HEK-293T (setting [2]); 0.95 in the data set with HEK-293T (setting [10]); -0.91 in the data set with Fibroblast (setting [1]); -0.24 with Fibroblast (setting [2]); 0.8 in the data set on U2OS (setting [1]). Further, the “Growth Rate” value in the data set with U2OS (setting [2]) is listed as -1; with U2OS (setting [10]), 0.96.

`Cc1nccc(COC(=O)N2C[C@@H]3[C@@H](CNC(=O)c4ccc5[nH]nnc5c4)[C@@H]3C2)n1` [BI 3017]: the “Growth Rate” value worked out at 0.67 with HEK-293T (setting [1]); 0.34 in the data set with HEK-293T (setting [2]); 0.9 in the data set on HEK-293T (setting [8]); 0.35 with Fibroblast (setting [1]); 0.77 in the data set with Fibroblast (setting [2]); 0.04 in the data set on Fibroblast (setting [5]). Further, the “Growth Rate” value was determined as 0.1 with Fibroblast (setting [7]); 0.53 with Fibroblast (setting [3]); 0.68 with Fibroblast (setting [4]); 0.07 with U2OS (setting [1]); 0.45 with U2OS (setting [2]); 0.79 with U2OS (setting [5]). In addition, the “Growth Rate” value in the data set with U2OS (setting [7]) is listed as 0.75; with U2OS (setting [8]) it was 0.9; in the data set with U2OS (setting [3]) it was 0.68; with U2OS (setting [9]), 0.98; with U2OS (setting [4]) it was 0.71.

Take `COc1c(C)cc(NC(=O)c2nn(Cc3ccc(F)cc3)c3c2CN(C(=O)c2ccc[nH]2)C[C@]3(C)C(N)=O)cc1C`: the “Growth Rate” value in the data set on HEK-293T (setting [1]) is reported as 0.79; in the data set on HEK-293T (setting [5]), 0.35; with HEK-293T (setting [7]), 0.13; in the data set with HEK-293T (setting [3]), 0.11; in the data set on HEK-293T (setting [4]), 0.15; in the data set with Fibroblast (setting [1]), 0.8. Besides, the “Growth Rate” value with Fibroblast (setting [2]) is on record as 0.51; with Fibroblast (setting [5]), -0.71; in the data set with Fibroblast (setting [6]) it was 0.46; in the data set with Fibroblast (setting [7]), -0.33; in the data set on Fibroblast (setting [8]) it was 0.15; with Fibroblast (setting [3]), -0.18. Further, the “Growth Rate” value is 0.32 with Fibroblast (setting [9]); -0.31 in the data set on Fibroblast (setting [4]); 0.29 in the data set with Fibroblast (setting [10]); -0.69 with U2OS (setting [1]); -0.16 in the data set with U2OS (setting [2]); 0.56 with U2OS (setting [5]). Moreover, the “Growth Rate” value in the data set with U2OS (setting [6]) is given as 0.73; with U2OS (setting [7]), 0.56; in the data set on U2OS (setting [8]), 0.68; with U2OS (setting [3]), 0.61; in the data set with U2OS (setting [9]), 0.66; in the data set with U2OS (setting [4]), 0.61. Besides, the “Growth Rate” value with U2OS (setting [10]) came to 0.67.

On to `CC(C)C[C@H](CO)Nc1nc(S[C@@H](C)c2ccccc2)nc2nc(N)sc12` [AZD-8797], for which the “Growth Rate” value in the data set on HEK-293T (setting [7]) was found to be 0.77; in the data set with HEK-293T (setting [8]), 0.99; in the data set with HEK-293T (setting [3]), 0.82; in the data set on HEK-293T (setting [4]) it was 0.93; in the data set on Fibroblast (setting [1]) it was 0.26; in the data set on Fibroblast (setting [5]), 0.37. Further, the “Growth Rate” value in the data set with Fibroblast (setting [7]) is reported as 0.47; in the data set with Fibroblast (setting [3]) it was 0.83; with Fibroblast (setting [4]), 0.54; in the data set with U2OS (setting [2]), -1; in the data set with U2OS (setting [7]) it was 0.93; with U2OS (setting [8]), 0.82. For the same compound, the “Growth Rate” value with U2OS (setting [9]) turned out to be 0.7; with U2OS (setting [10]) it was 0.79.
